# Laboratory results from patent US20260062422A1 (Halda Therapeutics OpCo, Inc., priority 2022, published 2026).
# Key:
# [1] = test system: T-Rex 293 cell line SC3 cells having increased expression of androgen receptor protein due to exposure to doxycycline; assay: Cellular growth inhibition, T-Rex 293 SC3 cells with doxycycline (androgen receptor induced), CellTiter-Glo; assay type: cell-based; settings: 72 h, T-Rex 293 SC3 cells with 10 ng/mL doxycycline (increased androgen receptor expression)
# Description: (§1) The following types of cells were prepared for this experiment: (i) a T-Rex 293 cell line having increased expression of androgen receptor protein due to exposure to doxycycline and (ii) a T-Rex 293 cell line lacking increased expression of androgen receptor protein. Ability of the test compounds to inhibit proliferation of the foregoing cell types was evaluated according to the procedures set forth below.
# (§2) The doxycycline-inducible androgen receptor protein expressing cell line was established using the following protocol: T-Rex 293 cells were purchased from Invitrogen (Cat #R71007) and transfected using Lipofectamine 2000 with the wild-type androgen receptor protein sequence cloned into the pcDNA4/TO vector. Transfected cells were selected using 400 μg/mL Zeocin (Invitrogen Cat #R25001). Following selection, single clones were raised and maintained in Dulbecco's Modified Eagle Medium (DMEM) supplemented with 10% w/w Tetracycline-free fetal bovine serum (FBS) and 250 μg/mL Zeocin. Clones were analyzed for expression of androgen receptor protein in the presence and absence of 10 ng/mL doxycycline (Sigma Cat #D9891), and a single doxycycline-inducible clone (hereinafter “SC3”) was selected for use in downstream assays.
# (§3) The SC3 cells were seeded on poly-D-lysine coated, black clear-bottom 384-well plates at 2500/well, in 25 μL Phenol Red Free Dulbecco's Modified Eagle Medium (DMEM) supplemented with 10% w/w charcoal-dextran treated fetal bovine serum (FBS) and 1% w/w pen-strep, with or without 10 ng/mL doxycycline. Pen-Strep is a commercially available mixture of penicillin G and streptomycin, which is used in mammalian cell culture media to prevent bacterial contamination. Phenol Red Free Dulbecco's Modified Eagle Medium (DMEM) supplemented with 10% w/w charcoal-dextran treated fetal bovine serum (FBS) and 1% w/w pen-strep, with or without 10 ng/mL doxycycline is herein referred to as Treatment Medium. Following seeding of cells in the plates, the plates were spun at 300×g for 30 seconds, then equilibrated to room temperature for 30 minutes, and then deposited in a humidified tissue culture incubator maintained at 37° C. with 5% CO2.
# (§4) At 24 hours after seeding of the cells, dilutions of test compound were prepared in DMSO and dissolved in Treatment Medium, to achieve a final DMSO concentration of 0.5% w/w, thereby providing the Test Compound Solution. A 25 μL aliquot of the Test Compound Solution was added to cells in the well plates. An equal volume of a solution containing DMSO and Treatment Medium was used as a negative control. Following treatment of cells with Test Compound Solution or said equal volume of a solution containing DMSO and Treatment Medium, the plates were spun at 300×g for 30 seconds, and then left in an incubator for 72 hours. At the end of the treatment duration, cell viability was quantified with CellTiter-Glo 2.0 reagent (Promega Cat #G9243). For this purpose, plates were equilibrated to room temperature for 30 minutes, and then 25 μL of CellTiter-Glo 2.0 reagent was added to cells in the plate wells. Plates were then agitated on a shaker for two minutes at 500 rpm and subsequently incubated at room temperature for 10 minutes. Following incubation, the plates were spun at 3000×g for 30 seconds, then sealed with an optical adhesive cover, and luminescence readings were measured with an EnVision Plate Reader. Data was normalized using zero luminescence for baseline. A four-parameter non-linear regression curve fit was applied to dose-response data in GraphPad Prism data analysis software to determine the half-maximal growth inhibitory concentration (GI50) for each test compound.
# [2] = test system: T-Rex 293 cell line SC3 cells lacking increased expression of androgen receptor protein; assay: Cellular growth inhibition, T-Rex 293 SC3 cells without doxycycline, CellTiter-Glo; assay type: cell-based; settings: 72 h, T-Rex 293 SC3 cells not exposed to doxycycline, CellTiter-Glo 2.0
# Description: as §1, §2, §3, §4
# [3] = test system: VCaP cells; assay: Cellular growth inhibition assay for VCaP cells, CellTiter-Glo; assay type: cell-based, human; settings: Homo sapiens, VCaP, 72 h, 72 hours treatment, CellTiter-Glo 2.0
# Description: VCaP cells were purchased from American Type Cell Culture (ATCC Cat #CRL2876) and then seeded on poly-D-lysine coated, black clear-bottom 384-well plates at 5000/well in 25 μL Dulbecco's Modified Eagle Medium (DMEM) supplemented with 10% w/w Fetal bovine serum (FBS) and 1% w/w Pen-Strep. Pen-Strep is a commercially available mixture of penicillin G and streptomycin, which is used in mammalian cell culture media to prevent bacterial contamination. Dulbecco's Modified Eagle Medium (DMEM) supplemented with 10% w/w fetal bovine serum (FBS) and 1% w/w Pen-Strep is herein referred to as Treatment Medium. Following seeding of cells in the plates, the plates were spun at 300×g for 30 seconds, then equilibrated to room temperature for 30 minutes, and then deposited in a humidified tissue culture incubator maintained at 37° C. with 5% CO2.
# At 24 hours after seeding of the cells, dilutions of test compound were prepared in DMSO and dissolved in Treatment Medium, to achieve a final DMSO concentration of 0.5% w/w, thereby providing the Test Compound Solution. A 25 μL aliquot of the Test Compound Solution was added to cells in the well plates. An equal volume of a solution containing DMSO and Treatment Medium was used as a negative control. Following treatment of cells with Test Compound Solution or said equal volume of a solution containing DMSO and Treatment Medium, the plates were spun at 300×g for 30 seconds, and then left in an incubator for 72 hours.
# At the end of the treatment duration, cell viability was quantified with CellTiter-Glo 2.0 reagent (Promega Cat #G9243). For this purpose, plates were equilibrated to room temperature for 30 minutes, and then 25 μL of CellTiter-Glo 2.0 reagent was added to cells in the plate wells. Plates were then agitated on a shaker for two minutes at 500 rpm and subsequently incubated at room temperature for 10 minutes. Following incubation, the plates were spun at 3000×g for 30 seconds, then sealed with an optical adhesive cover, and luminescence readings were measured with an EnVision Plate Reader.
# Data was normalized using zero luminescence for baseline. A four-parameter non-linear regression curve fit was applied to dose-response data in GraphPad Prism data analysis software to determine the half-maximal growth inhibitory concentration (GI50) for each test compound.
SMILES,GI50 [1] [nM],GI50 [2] [nM],GI50 [3] [nM]
Cc1sc2c(c1C)C(c1ccc(Cl)cc1)=N[C@@H](CC(=O)NCCOCCCOC1CCN(c3ncc(C(=O)N[C@H]4C(C)(C)[C@H](Oc5ccc(C#N)c(Cl)c5)C4(C)C)cn3)CC1)c1nnc(C)n1-2 [Compound I-27],< 500,500 to 1500,< 500
CCNC(=O)C[C@@H]1N=C(c2ccc(OCCOCCOC3CCN(c4ncc(C(=O)N[C@H]5C(C)(C)[C@H](Oc6ccc(C#N)c(Cl)c6)C5(C)C)cn4)CC3)c(F)c2)c2c(sc(C)c2C)-n2c(C)nnc21 [Compound I-78],< 500,1500 to 3000,1500 to 3000
Cc1sc2c(c1C)C(c1ccc(Cl)cc1)=N[C@@H](CC(=O)NCCCCCCCCOC1CCN(c3ncc(C(=O)N[C@H]4C(C)(C)[C@H](Oc5ccc(C#N)c(Cl)c5)C4(C)C)cn3)CC1)c1nnc(C)n1-2 [Compound I-25],< 500,> 3000,> 3000
Cc1sc2c(c1C)C(c1ccc(CC3CC(C4CCCN(c5ncc(C(=O)N[C@H]6C(C)(C)[C@H](Oc7ccc(C#N)c(Cl)c7)C6(C)C)cn5)C4)C3)cc1)=N[C@@H](C)c1nnc(C)n1-2 (stereo partly drawn) [Compound I-463],< 500,> 3000,< 500
Cc1sc2c(c1C)C(c1ccc(Cl)cc1)=N[C@@H](CC(=O)NCCCOCCCCOC1CCN(c3ncc(C(=O)N[C@H]4C(C)(C)[C@H](Oc5ccc(C#N)c(Cl)c5)C4(C)C)cn3)CC1)c1nnc(C)n1-2 [Compound I-33],< 500,< 500,< 500
Cc1sc2c(c1C)C(c1ccc(-c3cn(C4CCN(c5ncc(C(=O)N[C@H]6C(C)(C)[C@H](Oc7ccc(C#N)c(Cl)c7)C6(C)C)cn5)CC4)nn3)cc1)=NC(Cc1ncco1)c1nnc(C)n1-2 (stereo partly drawn) [Compound I-483],< 500,< 500,< 500
"Cc1sc2c(c1C)C(c1ccc(Cl)cc1)=N[C@@H](CC(=O)NCCOCCOCCN(C)c1ncc(C(=O)N[C@H]3C(C)(C)[C@H](Oc4ccc(C#N)c(Cl)c4)C3(C)C)cn1)c1nnc(C)n1-2 [Compound I-2, N-[3-(3-chloro-4-cyano-phenoxy)-2,2,4,4-tetramethyl-cyclobutyl]-2-[2-[2-[2-[[2-[(9S)-7-(4-chlorophenyl)-4,5,13-trimethyl-3-thia-1,8,11,12-tetrazatricyclo[8.3.0.02,6]trideca-2(6),4,7,10,12-pentaen-9-yl]acetyl]amino]ethoxy]ethoxy]ethyl-methylamino]pyrimidine-5-carboxamide]",< 500,1500 to 3000,< 500
"Cc1sc2c(c1C)C(c1ccc(Cl)cc1)=N[C@@H](CC(=O)NCCCCN1CCN(CC3CCN(c4ncc(C(=O)N[C@H]5C(C)(C)[C@H](Oc6ccc(C#N)c(Cl)c6)C5(C)C)cn4)CC3)CC1)c1nnc(C)n1-2 [Compound I-37, N-((1r,3r)-3-(3-chloro-4-cyanophenoxy)-2,2,4,4-tetramethylcyclobutyl)-2-(4-((4-(4-(2-((S)-4-(4-chlorophenyl)-2,3,9-trimethyl-6H-thieno[3,2-f][1,2,4]triazolo[4,3-a][1,4]diazepin-6-yl)acetamido)butyl)piperazin-1-yl)methyl)piperidin-1-yl)pyrimidine-5-carboxamide]",< 500,500 to 1500,< 500
Cc1sc2c(c1C)C(c1ccc(-c3cc(C4CCN(c5ncc(C(=O)N[C@H]6C(C)(C)[C@H](Oc7ccc(C#N)c(Cl)c7)C6(C)C)cn5)CC4)no3)cc1)=NC(Cc1ncco1)c1nnc(C)n1-2 (stereo partly drawn) [Compound I-482],< 500,< 500,< 500
CCNC(=O)C[C@@H]1N=C(c2ccc(OCCCCCCOC3CCN(c4ncc(C(=O)N[C@H]5C(C)(C)[C@H](Oc6ccc(C#N)c(Cl)c6)C5(C)C)cn4)CC3)cc2)c2c(sc(C)c2C)-n2c(C)nnc21 [Compound I-63],< 500,500 to 1500,1500 to 3000
CCNC(=O)C[C@@H]1N=C(c2ccc(CCCCCOC3CCN(c4ncc(C(=O)N[C@H]5C(C)(C)[C@H](Oc6ccc(C#N)c(Cl)c6)C5(C)C)cn4)CC3)cc2)c2c(sc(C)c2C)-n2c(C)nnc21 [Compound I-89],< 500,500 to 1500,1500 to 3000
Cc1sc2c(c1C)C(c1ccc(N3CCCN(CCCNc4ncc(C(=O)N[C@H]5C(C)(C)[C@H](Oc6ccc(C#N)c(Cl)c6)C5(C)C)cn4)CC3)cc1)=N[C@@H](Cc1ncco1)c1nnc(C)n1-2 [Compound I-666],< 500,1500 to 3000,< 500
Cc1sc2c(c1C)C(c1ccc(-n3cc(C4CCN(c5ncc(C(=O)N[C@H]6C(C)(C)[C@H](Oc7ccc(C#N)c(Cl)c7)C6(C)C)cn5)CC4)nn3)cc1)=N[C@@H](Cc1ncco1)c1nnc(C)n1-2 [Compound I-481],< 500,500 to 1500,< 500
Cc1sc2c(c1C)C(c1ccc(N3CCC4(CC3)CC(Nc3ncc(C(=O)N[C@H]5C(C)(C)[C@H](Oc6ccc(C#N)c(Cl)c6)C5(C)C)cn3)C4)cc1)=N[C@@H](Cc1ncco1)c1nnc(C)n1-2 [Compound I-668],< 500,< 500,< 500
Cc1sc2c(c1C)C(c1ccc(N3CCN(c4ncc(C(=O)N[C@H]5C(C)(C)[C@H](Oc6ccc(C#N)c(Cl)c6)C5(C)C)cn4)CC(F)(F)C3)cc1)=NC(Cc1ncco1)c1nnc(C)n1-2 (stereo partly drawn) [Compound I-670],< 500,> 3000,< 500
Cc1sc2c(c1C)C(c1ccc(Cl)cc1)=N[C@@H](CC(=O)NCCCCCCOC1CCN(c3ncc(C(=O)N[C@H]4C(C)(C)[C@H](Oc5ccc(C#N)c(Cl)c5)C4(C)C)cn3)CC1)c1nnc(C)n1-2 [Compound I-23],< 500,< 500,< 500
CCNC(=O)C[C@@H]1N=C(c2ccc(OCCOCCOC3CCN(c4ncc(C(=O)N[C@H]5C(C)(C)[C@H](Oc6ccc(C#N)c(Cl)c6)C5(C)C)cn4)CC3)cc2F)c2c(sc(C)c2C)-n2c(C)nnc21 [Compound I-77],< 500,500 to 1500,500 to 1500
Cc1sc2c(c1C)C(c1ccc(-c3cn(C4CCN(c5ncc(C(=O)N[C@H]6C(C)(C)[C@H](Oc7ccc(C#N)c(Cl)c7)C6(C)C)cn5)CC4)cn3)cc1)=N[C@@H](Cc1ncco1)c1nnc(C)n1-2 [Compound I-484],< 500,500 to 1500,500 to 1500
